How the values were obtained:
Assay type in all cases: physicochemical
[1] = Hygroscopicity / moisture sorption isotherms; settings: for water content: ambient relative humidities (about 50% R.H.); for water content / immediate weight gain (moisture): hydrochloride; for immediate weight gain (moisture): upon initial exposure to approximately 5% R.H.
Protocol: Hygroscopicity measurements were made for F-I and F-III using the VTI method as follows. Each sample was dried under vacuum at 60° C. until no further weight loss was detected, at which time the sample chamber was brought to 0% relative humidity. Moisture sorption isotherms were obtained at 25° C. using a VTI vacuum moisture balance with the following conditions: sample size 10–15 mg, adsorption/desorption range 0–95% relative humidity, step interval 5%, sample interval 10 minutes.
Moisture Sorption Isotherms were generated using a VTI SGA-100 flow instrument. The samples were analyzed at 25° C. from 0–95% relative humidity (RH) for adsorption and from 95–5% RH for desorption in steps of 5% RH. The adsorption and desorption isotherms were generated as a graph of the % weight change vs. % RH.

[2] = Aqueous solubility and dissolution rate of crystal forms
[3] = Physical stability of crystal forms (XRD at different relative humidities, variable temperature XRD)
Protocol: XRD patterns were obtained on a […] powder diffractometer, equipped with a CuKα source (λ=1.54056 Å) and a Kevex solid-state detector, operating at 50 kV and 40 mA. Each sample was scanned between 4° and 35° in 2θ. Samples were allowed to equilibrate for at least 30 minutes at the desired temperature and/or relative humidity before data collection. Variable temperature X-ray powder diffraction patterns were obtained on a […] powder diffractometer which was equipped with a CuKα source (λ=1.54056 Å) operated at 50 kV and 40 mA with a scintillation detector and nickel filter. The powder was packed into a top-loading, recessed temperature controlled holder and a smooth surface was obtained for diffraction. The sample was scanned from 2 to 35° 2θ at 2.5 seconds per step size of 0.04° beginning at 25° C. after an equilibration time of 5 minutes. Subsequent scans were obtained at increasing temperature increments of 25° C. to a maximum of 125° C.

water content [1] | immediate weight gain (moisture) ([1]; 25° C.) [%] | aqueous solubilities and dissolution rates of the two forms (F-I vs F-III) [2] | physical stability over the entire relative humidity range [3] | weight increase in moisture sorption/desorption isotherm ([1]; over the range of 0–95% RH, 25° C.) [%] | higher aqueous solubility relative to F-III [2] [%] | thermodynamic stability among known forms of arzoxifene hydrochloride ([3]; ambient storage conditions) | change in diffraction pattern, variable temperature x-ray powder diffraction ([3]; up to 125° C.) | SMILES
about 2.2% | 1.5 | comparable | physically stable |  |  |  |  | COc1ccc(-c2sc3cc(O)ccc3c2Oc2ccc(OCCN3CCCCC3)cc2)cc1.Cl [F-I, 6-Hydroxy-3-(4-[2-(piperidin-1-yl)ethoxy]phenoxy)-2-(4-methoxyphenyl)benzo[b]thiophene hydrochloride]
 |  |  |  | 0.11 | ~10 | thermodynamically most stable known form | no significant change | COc1ccc(-c2sc3cc(O)ccc3c2Oc2ccc(OCCN3CCCCC3)cc2)cc1.Cl [F-V, 6-Hydroxy-3-(4-[2-(piperidin-1-yl)ethoxy]phenoxy)-2-(4-methoxyphenyl)benzo[b]thiophene hydrochloride]
about 3.7% | 1.7 | comparable | physically stable |  |  |  |  | COc1ccc(-c2sc3cc(O)ccc3c2Oc2ccc(OCCN3CCCCC3)cc2)cc1.Cl [F-III, 6-Hydroxy-3-(4-[2-(piperidin-1-yl)ethoxy]phenoxy)-2-(4-methoxyphenyl)benzo[b]thiophene hydrochloride]

Reference: patent publication US7122203B2, “Stabilized formulations of 6-hydroxy-3-(-4-[2-(piperidin-1-yl) ethoxy]phenoxy)-2-(4-methoxyphenyl) benzo[b]thiophene and salts thereof” (Eli Lilly and Company, priority 2000, dated 2006)
